Reference: patent US10758499B2, “Dermatitis treatment” (Avexxin AS, priority 2012, dated 2020)

How the values were obtained:
group IVa PLA2 enzyme = biological target: T1, group IVa PLA2 enzyme (Mus musculus, UniProt P47713); test: PGE2 EIA analysis of ear tissue homogenates after treatment; format: in vivo, mice; details: treated versus paraffin placebo ear tissue, right ear biopsies
T1 construct: the right ear biopsies were homogenized in 400 μl lysisbuffer; from tissue; host or cells: mouse ear tissue (in vivo treatment, ear biopsies homogenised)
T1 sequence (P47713 1-748): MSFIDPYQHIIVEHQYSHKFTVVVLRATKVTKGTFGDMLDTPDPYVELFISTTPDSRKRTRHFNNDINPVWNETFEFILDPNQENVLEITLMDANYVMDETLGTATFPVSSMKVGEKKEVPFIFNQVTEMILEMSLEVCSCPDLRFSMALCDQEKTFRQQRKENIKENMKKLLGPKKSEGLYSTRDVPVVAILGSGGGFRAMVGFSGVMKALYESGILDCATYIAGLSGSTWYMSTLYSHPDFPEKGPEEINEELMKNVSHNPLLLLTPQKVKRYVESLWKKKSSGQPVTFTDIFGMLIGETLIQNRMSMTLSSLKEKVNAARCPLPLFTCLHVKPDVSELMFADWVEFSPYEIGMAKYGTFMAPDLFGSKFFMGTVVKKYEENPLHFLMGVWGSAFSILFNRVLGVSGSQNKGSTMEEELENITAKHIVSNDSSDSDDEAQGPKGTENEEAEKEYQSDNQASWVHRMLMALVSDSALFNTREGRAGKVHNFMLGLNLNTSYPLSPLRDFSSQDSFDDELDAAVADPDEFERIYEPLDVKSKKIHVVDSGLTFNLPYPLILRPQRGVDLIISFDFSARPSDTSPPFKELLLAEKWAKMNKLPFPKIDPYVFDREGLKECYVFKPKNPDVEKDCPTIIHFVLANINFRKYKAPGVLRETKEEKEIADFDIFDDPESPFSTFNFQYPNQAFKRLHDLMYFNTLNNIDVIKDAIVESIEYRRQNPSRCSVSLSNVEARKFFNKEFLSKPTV
Description: Using a PreCellys homogenisator, the right ear biopsies were homogenized in 400 μl lysisbuffer containing 10 μM indomethasin. The lysate was stored at −80° C. until further processing. PGE2 EIA analysis ear homogenates was performed according to kit protocol (Cayman Chemicals). Plasma samples were diluted 1:60 and 1:180 in EIA buffer. The samples were hybridized over-night (18 hrs, 4° C.). The EIA plates were read using a Multiscan plate reader (Ascent Labsystems, OD550 nm). Ascent software for Multiscan, Version 2.4.1 was used to obtain the data. PGE2 results are shown as mean±SD relative to the paraffin-treated placebo mice (n=5 mice).
Data of groups was examined by one-way analysis of variance, and individual groups were then compared with Dunnets test or Students t-test. Data was given as mean±SD, if not stated otherwise. Values of p<0.05 were considered significant.

[1] = tested on: oxazolone-induced delayed-type-hypersensitivity (DTH) responses; test: oxazolone-induced ear edema model (delayed-type-hypersensitivity) in mice, therapeutic topical treatment; format: in vivo, mice (female BALB/c); details: for Relative oxazolone specific ear swelling, average: topical 1 h and 7 h after challenge, 24 h after challenge, placebo 95%; for Absolute oxazolone specific ear swelling, average: topical on right ear 1 h and 7 h after challenge, measured 24 h after challenge, placebo 217 μm
Description: DTH can be induced by skin sensitization with oxazolone, followed by a topical ear challenge with oxazolone 7 days later. This challenge results in development of an inflammatory response in the ear within 24 hours, which is dependent on antigen-specific T cells. The DTH reaction is associated with the recruitment of a variety of inflammatory cells and development of edema. The latter can be measured by quantifying changes in ear thickness before and after ear challenge. The oxazolone-induced ear edema model in mice is therefore a model of delayed contact hypersensitivity that permits the quantitative evaluation of the topical and systemic anti-inflammatory activity of a compound following topical administration. Female mice (6-8 wks—BALB/c) were acclimatization for 7 days in 12 hours light/12 hours dark cycle, at Temperature: 20-24° C., humidity: 55%±10%, on a standard laboratory mouse diet. Day 0: Mice were anesthetized by inhalation of 3-4% isoflurane in a 1:1 mixture of oxygen and medical air. The abdominal skin was shaved to enable topical application of 100 μl 1.5% (w/v) oxazolone in 100% acetone. Day 7: All ears were wiped with ethanol to optimize exposure to oxazolone. Subsequently, the right ear of the sensitized animals were challenged by topical administration of 20 μl (10 μl on each side of the ear) 2.5% (w/v) oxazolone in 100% ethanol. The left ears were treated with 20 μl 100% ethanol. Day 8: After 24 hours, mice were sacrificed and the right ears were collected to enable analysis by (immuno)-histochemistry and/or histology. The vehicle used to carry AVX001 was paraffin. The placebo was paraffin. Approx 20 μl (10 μl on each side of the right ear) of composition is applied to effect the test. 4 groups (8 mice per group) were studied. Group 1: Placebo, 1 hour and 7 hours after challenge Group 2: Compound 0.2 wt %, 1 hour and 7 hours after challenge Group 3: Compound 0.05 wt %, 1 hour and 7 hours after challenge Group 4: Compound 0.01 wt %, 1 hour and 7 hours after challenge Day 7: Ear thickness of both ears was measured directly before the ear-challenge (5 measurements per ear) using a Mitutoyo micrometer (accuracy 0.01 mm). Day 8: 24 Hours after challenge, thickness of left and right ears was measured again. The increase in ear thickness of each ear was calculated by subtracting the mean ear thickness measured on day 7 (before challenge) from the thickness on day 8 (24 hrs after challenge). To determine the oxazolone specific increase in ear thickness, the calculated increase in ear thickness of the left ear was subtracted from that of the right ear. Both absolute (Delta μm) and relative (%) increases in ear thickness were calculated. Increase in ear thickness (Delta μm): Thickness day 8 (μm)−Thickness day 7 (μm) Oxazolone specific increase (Delta μm): Increase right ear (Delta μm)−Increase left ear (Delta μm) Relative increase in ear thickness (%): (Increase in ear thickness (Delta μm)/Thickness day 7 (μm))*100% Relative oxazolone specific increase in ear thickness (%): Relative increase right ear (%)−Relative increase left ear (%) Data of groups was examined by one-way analysis of variance, and individual groups were then compared with Dunnets test or Students t-test. Data was given as mean±SD, if not stated otherwise. Values of p<0.05 were considered significant.

CC/C=C\C/C=C\C/C=C\C/C=C\CC/C=C/CSCC(=O)C(F)(F)F [AVX001]
reduction in ear tissue PGE2 concentration (group IVa PLA2 enzyme): 20%
Relative oxazolone specific ear swelling, average ([1]; AVX001 0.01% in paraffin): 58%
Absolute oxazolone specific ear swelling, average ([1]; AVX001 0.01% in paraffin): 134 μm
Relative oxazolone specific ear swelling, average ([1]; AVX001 0.05% in paraffin): 43%
Absolute oxazolone specific ear swelling, average ([1]; AVX001 0.05% in paraffin): 103 μm
Relative oxazolone specific ear swelling, average ([1]; AVX001 0.2% in paraffin): 42%
Absolute oxazolone specific ear swelling, average ([1]; AVX001 0.2% in paraffin): 94 μm
reduction of the oxazolone specific ear swelling (result in words) ([1]; all concentrations (0.01%, 0.05%, 0.2%), topical, versus placebo): statistically significant for all concentrations
